Measurements: BindingDB's records for patent US20250313563 (The Broad Institute, 2025)
pIC50: −log10 of the molar value. Several values for one entry are separate records, joined by “and”; a condition that tells them apart may be missing. Identical values can stand only once.

Legend:
[1] = target: Glycogen synthase kinase-3 beta (Homo sapiens, UniProt P49841); experiment: TR-FRET Assay
Procedure, shortened: (§1)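 TR-FRET readout: streptavidin-d2 (40 nM in added detection mix) plus Tb-anti-pSer641 Ab (2 nM in mix). Steps were 30 min compound preincubation, kinase reaction, then EDTA stop.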

[2] = target: Glycogen synthase kinase-3 alpha (Homo sapiens, UniProt P49840); experiment: TR-FRET Assay
Procedure, shortened: as §1

Glycogen synthase kinase-3 alpha, sequence (P49840 whole entry): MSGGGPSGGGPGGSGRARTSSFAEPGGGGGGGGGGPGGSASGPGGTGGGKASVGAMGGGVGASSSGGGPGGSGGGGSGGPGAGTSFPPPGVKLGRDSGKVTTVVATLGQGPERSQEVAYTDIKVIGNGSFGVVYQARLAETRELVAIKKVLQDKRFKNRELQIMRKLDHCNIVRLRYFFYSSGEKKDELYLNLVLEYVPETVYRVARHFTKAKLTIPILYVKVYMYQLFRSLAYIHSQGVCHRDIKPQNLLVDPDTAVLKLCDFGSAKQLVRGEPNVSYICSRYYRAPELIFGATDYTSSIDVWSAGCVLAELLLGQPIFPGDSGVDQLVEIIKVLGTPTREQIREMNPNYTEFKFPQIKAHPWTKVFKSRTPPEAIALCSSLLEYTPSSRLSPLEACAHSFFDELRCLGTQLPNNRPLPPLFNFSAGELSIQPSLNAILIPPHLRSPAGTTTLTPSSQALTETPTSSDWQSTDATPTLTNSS
Glycogen synthase kinase-3 beta, sequence (P49841 whole entry): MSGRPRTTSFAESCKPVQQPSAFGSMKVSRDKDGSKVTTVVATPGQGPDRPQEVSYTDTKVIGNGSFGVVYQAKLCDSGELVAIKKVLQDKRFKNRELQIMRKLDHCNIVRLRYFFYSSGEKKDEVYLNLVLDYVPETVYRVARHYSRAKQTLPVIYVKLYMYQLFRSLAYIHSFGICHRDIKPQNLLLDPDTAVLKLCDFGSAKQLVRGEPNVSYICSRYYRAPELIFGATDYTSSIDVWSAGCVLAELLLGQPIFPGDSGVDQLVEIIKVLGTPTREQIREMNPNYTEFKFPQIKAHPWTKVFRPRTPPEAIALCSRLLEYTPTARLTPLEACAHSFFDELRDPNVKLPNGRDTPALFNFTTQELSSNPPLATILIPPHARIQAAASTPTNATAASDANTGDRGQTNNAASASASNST

Row | SMILES | pIC50 [1] | pIC50 [2]
1 | CCC1(c2cccc(N3C[C@H](C)C[C@H](C)C3)c2)C2=CN=NC2NC2=C1C(=O)CC(C)(C)C2 (stereo not given in full) [US20250313563, Compound 885237] | 5.30 to 6.00 | 6.00 to 7.00
2 | CCN(c1cccnc1)c1cccc(C2(CC)C3=CN=NC3NC3=C2C(=O)CC(C)(C)C3)c1 (stereo not given) [US20250313563, Compound 885331] | > 7.00 | > 7.00
3 | CCC1(c2cccc(N(c3cccnc3)C(C)C)c2)C2=CN=NC2NC2=C1C(=O)CC(C)(C)C2 (stereo not given) [US20250313563, Compound 885344] | > 7.00 | > 7.00
4 | CCC1(c2cccc(N(C)c3cccnc3C)c2)C2=CN=NC2NC2=C1C(=O)CC(C)(C)C2 (stereo not given) [US20250313563, Compound 885355] | 5.30 to 6.00 | 6.00 to 7.00
5 | CCN(c1cccc(C2(CC)C3=CN=NC3NC3=C2C(=O)CC(C)(C)C3)c1)c1cccnc1C (stereo not given) [US20250313563, Compound 885367] | 5.30 to 6.00 | 6.00 to 7.00
6 | CCC1(c2cccc(N(C)c3cnn(C)c3)c2)C2=CN=NC2NC2=C1C(=O)CC(C)(C)C2 (stereo not given) [US20250313563, Compound 885382] | 5.30 to 6.00 | 6.00 to 7.00
7 | CCC1(c2cccc(N(C)c3nccn3C)c2)C2=CN=NC2NC2=C1C(=O)CC(C)(C)C2 (stereo not given) [US20250313563, Compound 885402] | 5.30 to 6.00 | 6.00 to 7.00
8 | CC[C@]1(c2cccc([C@H]3CCOC3)c2)C2=CN=NC2NC2=C1C(=O)CC(C)(C)C2 (stereo not given in full) [US20250313563, Compound 889556] | > 7.00 | > 7.00
9 | CC[C@]1(c2cccc([C@@H]3CCOC3)c2)C2=CN=NC2NC2=C1C(=O)CC(C)(C)C2 (stereo not given in full) [US20250313563, Compound 889557] | > 7.00 | > 7.00
10 | CC[C@@]1(c2cccc([C@H]3CCOC3)c2)C2=CN=NC2NC2=C1C(=O)CC(C)(C)C2 (stereo not given in full) [US20250313563, Compound 889558] | 6.00 to 7.00 | > 7.00
11 | CC[C@@]1(c2cccc([C@@H]3CCOC3)c2)C2=CN=NC2NC2=C1C(=O)CC(C)(C)C2 (stereo not given in full) [US20250313563, Compound 889565] | 5.30 to 6.00 | 6.00 to 7.00
12 | CC1(C)CC(=O)C2=C(C1)NC1=C(CN=N1)C21CSC1 [US20250313563, Compound 889567] | 6.00 to 7.00 | > 7.00
13 | CC1(C)CC(=O)C2=C(C1)NC1=C(CN=N1)C21CN(C(=O)OCc2ccccc2)C1 [US20250313563, Compound 889568] | 5.30 to 6.00 | 6.00 to 7.00
14 | CC1(C)CC(=O)C2=C(C1)NC1=C(CN=N1)C21COC1 [US20250313563, Compound 889569] | 6.00 to 7.00 | 6.00 to 7.00
15 | CC1(C)CC(=O)C2=C(C1)NC1=C(CN=N1)C21CCCNCC1 (stereo not given) [US20250313563, Compound 889571] | < 5.30 | < 5.30
16 | O=C1CC(C(F)(F)F)CC2=C1C1(CCOCC1)C1=C(N=NC1)N2 (stereo not given) [US20250313563, Compound 889572] | 6.00 to 7.00 | 6.00 to 7.00
17 | O=C1CC2(CCOC2)CC2=C1C1(CCOCC1)C1=C(N=NC1)N2 (stereo not given) [US20250313563, Compound 889573] | 6.00 to 7.00 | > 7.00
18 | CC1(C)CC(=O)C2=C(C1)NC1N=NC=C1C21CCCN(CC(F)F)CC1 (stereo not given) [US20250313563, Compound 889574] | 6.00 to 7.00 | 6.00 to 7.00
19 | CC(=O)N1CCCC2(CC1)C1=CN=NC1NC1=C2C(=O)CC(C)(C)C1 (stereo not given) [US20250313563, Compound 889575] | 5.30 to 6.00 | 6.00 to 7.00
20 | CC1(C)CC(=O)C2=C(C1)NC1N=NC=C1C21CCCN(CC(F)(F)F)CC1 (stereo not given) [US20250313563, Compound 889576] | 6.00 to 7.00 | 6.00 to 7.00
21 | CC1(C)CC(=O)C2=C(C1)NC1N=NC=C1C21CCCN(C(=O)c2ccccc2)CC1 (stereo not given) [US20250313563, Compound 889577] | 5.30 to 6.00 | 5.30 to 6.00
22 | CC1(C)CC(=O)C2=C(C1)NC1N=NC=C1C21CCCN(S(=O)(=O)c2ccccc2)CC1 (stereo not given) [US20250313563, Compound 889578] | > 7.00 | > 7.00
23 | CCC1(c2cccc(S(=O)(=O)CC)c2)C2=CN=NC2NC2=C1C(=O)CC(C)(C)C2 (stereo not given) [US20250313563, Compound 889579] | > 7.00 | > 7.00
24 | CCC1(c2cccc(N(C)C(=O)COC)c2)C2=CN=NC2NC2=C1C(=O)CC(C)(C)C2 (stereo not given) [US20250313563, Compound 889580] | 6.00 to 7.00 | > 7.00
25 | CC[C@]1(c2cccc(N3CCOCC3)c2)C2=C(CC(C)(C)CC2=O)NC2N=NC(C)=C21 (stereo not given in full) [US20250313563, Compound 889581] | > 7.00 | > 7.00
26 | CC[C@@]1(c2cccc(N3CCOCC3)c2)C2=C(CC(C)(C)CC2=O)NC2N=NC(C)=C21 (stereo not given in full) [US20250313563, Compound 889582] | 5.30 to 6.00 | 6.00 to 7.00
27 | CC(=O)N1CC[C@]2(C1)C1=C(N=NC1)NC1=C2C(=O)CC(C)(C)C1 [US20250313563, Compound 889583] | < 5.30 | 5.30 to 6.00
28 | CC(=O)N1CC[C@@]2(C1)C1=C(N=NC1)NC1=C2C(=O)CC(C)(C)C1 [US20250313563, Compound 889584] | 5.30 to 6.00 | 6.00 to 7.00

Row | SMILES | pIC50 [1] | pIC50 [2]
29 | CCC1(c2cccc(N(C)c3ccnn3C)c2)C2=CN=NC2NC2=C1C(=O)CC(C)(C)C2 (stereo not given) [US20250313563, Compound 889604] | 5.30 to 6.00 | 6.00 to 7.00
30 | CCC1(c2cccc(C3CC4CCC(C3)O4)c2)C2=CN=NC2NC2=C1C(=O)CC(C)(C)C2 (stereo not given) [US20250313563, Compound 889622] | 6.00 to 7.00 | 6.00 to 7.00
31 | CC[C@]1(c2cccc(N3CCC3)c2)C2=CN=NC2NC2=C1C(=O)CC(C)(C)C2 (stereo not given in full) [US20250313563, Compound 889631] | 6.00 to 7.00 | 6.00 to 7.00
32 | CC[C@@]1(c2cccc(N3CCC3)c2)C2=CN=NC2NC2=C1C(=O)CC(C)(C)C2 (stereo not given in full) [US20250313563, Compound 889632] | < 5.30 | < 5.30
33 | CCC1(c2cccc(N3CCCc4ncccc43)c2)C2=CN=NC2NC2=C1C(=O)CC(C)(C)C2 (stereo not given) [US20250313563, Compound 889639] | > 7.00 and 6.00 to 7.00 | > 7.00
34 | CC1(C)CC(=O)C2=C(C1)NC1N=NC=C1[C@]21C[C@H](c2ccncc2)C1 (stereo not given in full) [US20250313563, Compound 889664] | 6.00 to 7.00 | > 7.00
35 | CC1(C)CC(=O)C2=C(C1)NC1=C(CN=N1)[C@]21C[C@@H](c2ccncc2)C1 [US20250313563, Compound 889665] | > 7.00 and 6.00 to 7.00 | > 7.00
36 | CCC1(c2cccc(N(C(C)=O)C(C)C)c2)C2=CN=NC2NC2=C1C(=O)CC(C)(C)C2 (stereo not given) [US20250313563, Compound 893305] | > 7.00 | > 7.00
37 | CCC1(c2cccc(N(CCOC)C(C)=O)c2)C2=CN=NC2NC2=C1C(=O)CC(C)(C)C2 (stereo not given) [US20250313563, Compound 893306] | > 7.00 | > 7.00
38 | O=C1CC2(CCCCC2)CC2=C1C1(CCOCC1)C1=C(N=NC1)N2 [US20250313563, Compound 893307] | 6.00 to 7.00 | > 7.00
39 | O=C1CC2(CCCC2)CC2=C1C1(CCOCC1)C1=C(N=NC1)N2 [US20250313563, Compound 893308] | 6.00 to 7.00 | > 7.00
40 | O=C1CC(c2ccccc2)CC2=C1C1(CCOCC1)C1=C(N=NC1)N2 (stereo not given) [US20250313563, Compound 893309] | 5.30 to 6.00 | 6.00 to 7.00
41 | COc1ccccc1S(=O)(=O)N1CCC2(CC1)C1=C(N=NC1)NC1=C2C(=O)CC(C)(C)C1 [US20250313563, Compound 893310] | > 7.00 and 6.00 to 7.00 | > 7.00
42 | CC1(C)CC(=O)C2=C(C1)NC1=C(CN=N1)C21CCN(S(=O)(=O)c2ccc(F)cc2)CC1 [US20250313563, Compound 893311] | > 7.00 and 5.30 to 6.00 | > 7.00 and 6.00 to 7.00
43 | CC1(C)CC(=O)C2=C(C1)NC1=C(CN=N1)C21CCC2(CC2)CC1 [US20250313563, Compound 893312] | > 7.00 | > 7.00
44 | CN1CCCC2(CC1)C1=C(N=NC1)NC1=C2C(=O)CC(C)(C)C1 (stereo not given) [US20250313563, Compound 893313] | < 5.30 | < 5.30
45 | CC(=O)N1CC2(C1)C1=C(N=NC1)NC1=C2C(=O)CC(C)(C)C1 [US20250313563, Compound 893314] | < 5.30 | 5.30 to 6.00
46 | CC1(C)CC(=O)C2=C(C1)NC1=C(CN=N1)C21CN(C(=O)c2ccccc2)C1 [US20250313563, Compound 893315] | < 5.30 | < 5.30
47 | C[C@@H]1C[C@H](C)C(=O)C2=C1NC1=C(CN=N1)C21CCOCC1 [US20250313563, Compound 893316] | 6.00 to 7.00 | > 7.00
48 | C[C@H]1CCC[C@@]2(C1)C1=C(N=NC1)NC1=C2C(=O)CC(C)(C)C1 [US20250313563, Compound 893318] | 6.00 to 7.00 | 6.00 to 7.00
49 | C[C@H]1CCC[C@]2(C1)C1=C(N=NC1)NC1=C2C(=O)CC(C)(C)C1 [US20250313563, Compound 893319] | 6.00 to 7.00 | 6.00 to 7.00
50 | C[C@@H]1CCC[C@]2(C1)C1=C(N=NC1)NC1=C2C(=O)CC(C)(C)C1 [US20250313563, Compound 893320] | > 7.00 | > 7.00
51 | CC[C@]1(c2cc(-c3ccncc3)ccc2C)C2=CN=NC2NC2=C1C(=O)CC(C)(C)C2 (stereo not given in full) [US20250313563, Compound 893323] | 6.00 to 7.00 | 6.00 to 7.00
52 | CC[C@@]1(c2cc(-c3ccncc3)ccc2F)C2=CN=NC2NC2=C1C(=O)CC(C)(C)C2 (stereo not given in full) [US20250313563, Compound 893324] | < 5.30 | 5.30 to 6.00
53 | CC1(C)CC(=O)C2=C(C1)NC1=C(CN=N1)C21CCS(=O)(=O)CC1 [US20250313563, Compound 896013] | 6.00 to 7.00 | 6.00 to 7.00
54 | CCC1(c2cccc(C(F)(F)F)c2)C2=CN=NC2NC2=C1C(=O)N(Cc1ccccc1)CC2 (stereo not given) [US20250313563, Compound 897749] | < 5.30 | 6.00 to 7.00
55 | C[C@@H]1CC[C@@]2(C1)C1=C(N=NC1)NC1=C2C(=O)CC(C)(C)C1 [US20250313563, Compound 897750] | > 7.00 | > 7.00
